The target in one experiment is T1, Rhesus PDE2A3 (Macaca mulatta, UniProt B3VTJ2).
T1 construct: made in house; host or cells: AD293 cells, transient transfection, pcDNA3.3-TOPO; lysate supernatant used as enzyme
T1 sequence (B3VTJ2 1-941): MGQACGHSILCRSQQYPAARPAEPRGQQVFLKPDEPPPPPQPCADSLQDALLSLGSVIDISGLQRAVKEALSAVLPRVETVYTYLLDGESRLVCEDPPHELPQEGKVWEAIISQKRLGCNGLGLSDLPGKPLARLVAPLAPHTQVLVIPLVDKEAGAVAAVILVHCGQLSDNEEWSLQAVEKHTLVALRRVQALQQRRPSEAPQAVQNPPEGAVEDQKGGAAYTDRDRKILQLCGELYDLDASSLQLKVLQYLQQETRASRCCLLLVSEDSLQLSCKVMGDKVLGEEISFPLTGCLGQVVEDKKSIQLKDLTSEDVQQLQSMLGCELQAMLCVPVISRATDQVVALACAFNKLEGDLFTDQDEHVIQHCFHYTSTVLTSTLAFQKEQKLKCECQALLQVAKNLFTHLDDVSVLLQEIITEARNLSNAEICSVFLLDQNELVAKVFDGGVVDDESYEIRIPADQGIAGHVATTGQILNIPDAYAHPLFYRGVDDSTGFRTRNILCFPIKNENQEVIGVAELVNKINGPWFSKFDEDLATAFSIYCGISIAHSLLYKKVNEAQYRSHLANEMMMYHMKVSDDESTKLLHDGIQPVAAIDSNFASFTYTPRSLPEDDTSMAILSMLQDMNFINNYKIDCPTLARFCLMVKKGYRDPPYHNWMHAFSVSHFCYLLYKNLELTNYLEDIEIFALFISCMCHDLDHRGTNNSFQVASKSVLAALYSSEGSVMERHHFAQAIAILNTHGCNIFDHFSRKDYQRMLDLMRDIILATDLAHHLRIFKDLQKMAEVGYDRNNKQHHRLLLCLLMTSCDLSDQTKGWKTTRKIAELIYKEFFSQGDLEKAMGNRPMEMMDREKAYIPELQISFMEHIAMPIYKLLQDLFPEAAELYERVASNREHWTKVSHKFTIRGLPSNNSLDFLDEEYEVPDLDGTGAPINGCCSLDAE
As to the kind of experiment: PDE2 fluorescence polarization (IMAP FP) inhibition assay, rhesus enzyme. It counts as biochemical, rhesus macaque. The conditions noted are these: Lab A; read-out: Rhesus PDE2 Ki (nM) Lab A. Here is the method:
The activity of the compounds in accordance with the present invention as PDE2 inhibitors may be readily determined using a fluorescence polarization (FP) methodology (Huang, W., et al., J. Biomol Screen, 2002, 7: 215).
In a typical experiment the PDE2 inhibitory activity of the compounds of the present invention was determined in accordance with the following experimental method. Rhesus PDE2A3 was amplified from rhesus macaque brain cDNA (Biochain Institute, Hayward, Calif.) using primers based on human PDE2A sequence (accession NM_002599.3) where the forward primer containing a Kozak consensus was 5′-[…]-3′ and the reverse primer was 5′-[…]-3′. Amplification with Easy-A High-Fidelity PCR cloning enzyme (Stratagene, La Jolla, Calif.) was 95° C. for 2 minutes followed by thirty three cycles of 95° C. for 40 seconds, 52° C. for 30 seconds, and 72° C. for 2 minutes 48 seconds. Final extension was 72° C. for 7 minutes. The PCR product was TA cloned into pcDNA3.3-TOPO (Invitrogen, Carlsbad, Calif.) according to standard protocol. A consensus sequence was developed from multiple clones and then deposited into GenBank (EU812167). AD293 cells (Stratagene, La Jolla, Calif.) with 70-80% confluency were transiently transfected with rhesus PDE2A3/pcDNA3.3-TOPO using Lipofectamine 2000 according to manufacturer specifications (Invitrogen, Carlsbad, Calif.). Cells were harvested 48 hours post-transfection and lysed by sonication (setting 3, 10×5 sec pulses) in a buffer containing 20 mM HEPES pH 7.4, 1 mM EDTA and Complete Protease Inhibitor Cocktail Tablets (Roche, Indianapolis, Ind.). Lysate was collected by centrifugation at 75,000×g for 20 minutes at 4° C. and supernatant utilized for evaluation of PDE2 activity. The fluorescence polarization assay for cyclic nucleotide phosphodiesterases was performed using an IMAP® FP kit supplied by Molecular Devices, Sunnyvale, Calif. (product # R8139). […] Assays were performed at room temperature in 384-well microtiter plates with an incubation volume of 20.2 μL. Solutions of test compounds were prepared in DMSO and serially diluted with DMSO to yield 8 μL of each of 10 solutions differing by 3-fold in concentration, at 32 serial dilutions per plate. […] 0% of inhibition is determined by using DMSO (1% final concentrations).
A Labcyte Echo 555 (Labcyte, Sunnyvale, Calif.) is used to dispense 200 nL from each well of the titration plate to the 384 well assay plate. Ten microliters of a solution of enzyme (1/2000 final dilution from aliquots; sufficient to produce 20% substrate conversion) was added to the assay plate. Next 10 uL of a separate solution of the substrate FAM-labeled cAMP (50 nM final concentration product # R7506 from Molecular Devices) and the activator cGMP (1 uM final concentration), prepared in the assay buffer (10 mM Tris HCl, pH 7.2, 10 mM MgCl2, 0.05% NaN3 0.01% Tween-20, and 1 mM DTT) was added to the assay plate and shaken to mix. The reaction is allowed to proceed at room temperature for 60 minutes. A binding solution is then made from the kit components, comprised of 80% Solution A, 20% Solution B and binding reagent at a volume of 1/600 the total binding solution. The enzymatic reaction is stopped by addition of 60 μl, of the binding solution to each well of the assay plates and the plates are sealed and shaken for 30 seconds. The plate was incubated at room temperature for at least one hour prior to determining the fluorescence polarization (FP). The parallel and perpendicular fluorescence of each well of the plate was measured using a Tecan Genios Pro plate reader (Tecan, Switzerland) or Perkin Elmer EnVision™ plate reader (Waltham, Mass.). Fluorescence polarization (mP) was calculated from the parallel (S) and perpendicular (P) fluorescence of each sample well and the analogous values for the median control well, containing only substrate (So and Po), using the following equation: Polarization (mP)=1000*(S/So−P/Po)/(S/So+P/Po).
Background: Fluorescence polarisation rises when a labelled molecule tumbles more slowly, as on binding a larger partner.
`Cc1nc(-c2cnn(C(C)C3CCOCC3)c2)cc(=O)[nH]1` (stereo not drawn) [Example 68, 2-methyl-6-(1-(1-(tetrahydro-2H-pyran-4-yl)ethyl)-1H-pyrazol-4-yl)pyrimidin-4(3H)-one]: the Ki turned out to be 30100 nM.

Still in this experiment, the particulars now being: Lab B; read-out: Rhesus PDE2 Ki (nM) Lab B.
Consider `Cc1nc(-n2cc(C(C)c3ccc(C(C)(C)C)cc3)cn2)cc(=O)[nH]1` (stereo not drawn) [Example 45, 6-(4-(1-(4-(tert-butyl)phenyl)ethyl)-1H-pyrazol-1-yl)-2-methylpyrimidin-4(3H)-one], for which the Ki amounted to 411 nM.

As for `Cc1nc(-n2cc(C(C)c3ccc4c(c3)COCC4)cn2)cc(=O)[nH]1` (stereo not drawn) [Example 46, 6-(4-(1-(isochroman-7-yl)ethyl)-1H-pyrazol-1-yl)-2-methylpyrimidin-4(3H)-one], the Ki came to 2480 nM.

On to `Cc1nc(-n2cc(C(C)c3ccc4c(c3)OCC4(C)C)cn2)cc(=O)[nH]1` (stereo not drawn) [Example 47, 6-(4-(1-(3,3-dimethyl-2,3-dihydrobenzofuran-6-yl)ethyl)-1H-pyrazol-1-yl)-2-methylpyrimidin-4(3H)-one], for which the Ki turned out to be 1240 nM.

For the molecule `Cc1nc(-n2cc(C(C)c3ccncc3)cn2)cc(=O)[nH]1` (stereo not drawn) [Example 54, 2-methyl-6-[4-(1-pyridin-4-ylethyl)-1H-pyrazol-1-yl]pyrimidin-4(3H)-one], the Ki was 18200 nM.

As for `Cc1nc(-n2cc(C(C)c3ccc(OC(F)(F)F)cc3C)cn2)cc(=O)[nH]1` (stereo not drawn) [Example 55, 2-methyl-6-(4-(1-(2-methyl-4-(trifluoromethoxy)phenyl)ethyl)-1H-pyrazol-1-yl)pyrimidin-4(3H)-one], the Ki turned out to be 467 nM.

In the case of `Cc1nc(-c2cnn(C(C)C3CCOCC3)c2)cc(=O)[nH]1` (stereo not drawn) [Example 68, 2-methyl-6-(1-(1-(tetrahydro-2H-pyran-4-yl)ethyl)-1H-pyrazol-4-yl)pyrimidin-4(3H)-one], the Ki was 40100 nM.

For the molecule `Cc1nc(-c2cnn(C(C)c3cccc(C(F)(F)F)c3)c2)cc(=O)[nH]1` (stereo not drawn) [Example 73, 2-methyl-6-(1-(1-(3-(trifluoromethyl)phenyl)ethyl)-1H-pyrazol-4-yl)pyrimidin-4(3H)-one], the Ki was 6380 nM.

Take `Cc1nc(-c2ccnn2C(C)c2ccc(C(F)(F)F)cc2)cc(=O)[nH]1` (stereo not drawn) [Example 74, 2-methyl-6-(1-(1-(4-(trifluoromethyl)phenyl)ethyl)-1H-pyrazol-5-yl)pyrimidin-4(3H)-one]: the Ki came out at 11000 nM.

For the molecule `Cc1nc(-c2ccn(C(C)c3ccc(OC(F)(F)F)cc3)n2)cc(=O)[nH]1` (stereo not drawn) [Example 75, 2-methyl-6-(1-(1-(4-(trifluoromethoxy)phenyl)ethyl)-1H-pyrazol-3-yl)pyrimidin-4(3H)-one], the Ki amounted to 3250 nM.

Consider `Cc1nc(-c2ccnn2C(C)c2ccc(OC(F)(F)F)cc2)cc(=O)[nH]1` (stereo not drawn) [Example 76, 2-methyl-6-(1-(1-(4-(trifluoromethoxy)phenyl)ethyl)-1H-pyrazol-5-yl)pyrimidin-4(3H)-one], for which the Ki was 15900 nM.

Take `Cc1nc(-c2c(C)nn(C(C)c3ccc(C(F)(F)F)cc3)c2C)cc(=O)[nH]1` (stereo not drawn) [Example 79, 6-(3,5-dimethyl-1-(1-(4-(trifluoromethyl)phenyl)ethyl)-1H-pyrazol-4-yl)-2-methylpyrimidin-4(3H)-one]: the Ki was found to be 727 nM.

On to `Cc1nc(-c2cnn(C(C)c3ccc(F)cc3)c2)cc(=O)[nH]1` (stereo not drawn) [Example 152, 6-(1-(1-(4-fluorophenyl)ethyl)-1H-pyrazol-4-yl)-2-methylpyrimidin-4(3H)-one], for which the Ki was 4130 nM.

For the molecule `COC(=O)c1ccc(C(C)n2cc(-c3cc(=O)[nH]c(C)n3)cn2)cc1` (stereo not drawn) [Example 155, methyl 4-(1-(4-(2-methyl-6-oxo-1,6-dihydropyrimidin-4-yl)-1H-pyrazol-1-yl)ethyl)benzoate], the Ki was 3830 nM.

Turning to `Cc1nc(-c2cnn(C(C)c3ccccc3)c2)cc(=O)[nH]1` (stereo not drawn) [Example 156, 2-methyl-6-(1-(1-phenylethyl)-1H-pyrazol-4-yl)pyrimidin-4(3H)-one], the Ki was determined as 4890 nM.

`Cc1ccc(C(C)n2ccc(-c3cc(=O)[nH]c(C)n3)n2)cc1` (stereo not drawn) [Example 157, 2-methyl-6-(1-(1-(p-tolyl)ethyl)-1H-pyrazol-3-yl)pyrimidin-4(3H)-one]: the inhibition constant Ki stood at 48700 nM.

Regarding `Cc1nc(-c2ccn(C(C)c3ccccc3)n2)cc(=O)[nH]1` (stereo not drawn) [Example 158, 2-methyl-6-(1-(1-phenylethyl)-1H-pyrazol-3-yl)pyrimidin-4(3H)-one], the Ki was determined as 18500 nM.

`Cc1nc(-c2ccn(C(C)c3cccc(C(F)(F)F)c3)n2)cc(=O)[nH]1` (stereo not drawn) [Example 159, 2-methyl-6-(1-(1-(3-(trifluoromethyl)phenyl)ethyl)-1H-pyrazol-3-yl)pyrimidin-4(3H)-one]: the Ki stood at 25700 nM.

With `CCCC(c1ccc(C(F)(F)F)cc1)n1ccc(-c2cc(=O)[nH]c(C)n2)n1` (stereo not drawn) [Example 160, 2-methyl-6-(1-(1-(4-(trifluoromethyl)phenyl)butyl)-1H-pyrazol-3-yl)pyrimidin-4(3H)-one], the inhibition constant (Ki) was 2300 nM.

Regarding `Cc1nc(-c2ccn(C(C)c3ccc(F)cc3)n2)cc(=O)[nH]1` (stereo not drawn) [Example 161, 6-(1-(1-(4-fluorophenyl)ethyl)-1H-pyrazol-3-yl)-2-methylpyrimidin-4(3H)-one], the Ki amounted to 13900 nM.

In the case of `COC(=O)c1ccc(C(C)n2ccc(-c3cc(=O)[nH]c(C)n3)n2)cc1` (stereo not drawn) [Example 162, methyl 4-(1-(3-(2-methyl-6-oxo-1,6-dihydropyrimidin-4-yl)-1H-pyrazol-1-yl)ethyl)benzoate], the Ki was 29800 nM.

The Ki is the equilibrium dissociation constant of an inhibitor or competing ligand from its target.

These data come from patent publication US10287269B2, “Pyrazolyl pyrimidinone compounds as PDE2 inhibitors” (Merck Sharp & Dohme Corp., priority 2015, dated 2019).
